Results taken from patent US20190125714A1, “CALPAIN INHIBITORS IN THE PREVENTION AND/OR TREATMENT OF VENTRICULAR REMODELLING” (FUNDAClÓ HOSPITAL UNIVERSITARI VALL D'HEBRON - INSTITUT DE …, priority 2016, published 2019).
Like-named read-outs stand apart in the source and are kept apart here.

Tests used:
[1] = administered at the start (onset) of reperfusion; cited from earlier work
[2] = intravenously before initiating ischemia and during a reperfusion of 6 hours; cited from earlier work
[3] = target: T1, matrix metalloproteinase-2 (MMP-2) (Rattus norvegicus, UniProt P33436); test: MMP-2 gelatinolytic activity by gelatin zymography of myocardial extracts; type: biochemical; details: 5, 10 and 50 μM, incubated overnight at 37° C.
T1 construct: myocardial preparations obtained from rats reperfused for 21 days (control group); from tissue; host or cells: rat myocardium (extracts after 21 days of reperfusion)
T1 sequence (P33436 110-662): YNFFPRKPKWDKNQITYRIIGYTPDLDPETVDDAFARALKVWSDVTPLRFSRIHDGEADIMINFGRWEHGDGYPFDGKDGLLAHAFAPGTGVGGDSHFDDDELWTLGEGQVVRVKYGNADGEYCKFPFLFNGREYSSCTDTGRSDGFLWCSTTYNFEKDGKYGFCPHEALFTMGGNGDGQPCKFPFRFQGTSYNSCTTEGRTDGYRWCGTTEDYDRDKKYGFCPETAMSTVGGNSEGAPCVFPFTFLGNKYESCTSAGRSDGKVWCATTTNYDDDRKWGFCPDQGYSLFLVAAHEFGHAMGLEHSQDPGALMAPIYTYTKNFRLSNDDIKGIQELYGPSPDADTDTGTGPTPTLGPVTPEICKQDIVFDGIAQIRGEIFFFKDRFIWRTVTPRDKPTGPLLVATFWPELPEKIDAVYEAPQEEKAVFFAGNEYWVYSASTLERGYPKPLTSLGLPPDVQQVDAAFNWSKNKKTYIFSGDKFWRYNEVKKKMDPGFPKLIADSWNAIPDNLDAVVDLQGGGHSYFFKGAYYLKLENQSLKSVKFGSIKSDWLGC
Protocol: Activity of MMP-2 was evaluated by gelatin zymography. Briefly, myocardial preparations obtained from rats reperfused for 21 days (control group) were run on a 10% polyacrylamide gel copolymerized with 1.5 mg/ml gelatin. After washing with 2.5% Triton X-100, gels were cut into strips and incubated separately, overnight, in zymography buffer with SNJ-1945 at the concentrations of 5, 10 and 50 μM, DMSO as a vehicle control or the selective MMP inhibitor ONO-4817 (N-[(1 S,3S)-1-[(Ethoxymethoxy)methyl]-4-(hydroxyamino)-3-methyl-4-oxobutyl]-4-phenoxybenzamide) (50 μM, Tocris). It was further examined MMP-2 activity (as % of 0 μM) in samples prepared from animals receiving SNJ-1945 by oral gavage and reperfused for 21 days (Chronic group). Gels were stained in 0.25% Coomassie Brilliant blue G, 40% methanol, and gelatinolytic activities quantitated after destaining.

[4] = system: calpain; test: Isolated rat hearts subjected to ischemia/reperfusion, calpain-specific α-fodrin breakdown products; details: perfusion of isolated rat hearts, data not shown
[5] = system: Sprague-Dawley rats; details: for Attenuation of scar area (LV area stained with picrosirius red): 21 days of reperfusion
[6] = system: Sprague-Dawley rats; test: Inflammatory cell infiltration (CD68 immunohistochemistry) in hearts reperfused for 3 days; type: in vivo, rat; details: 3 days of reperfusion
Protocol: Sprague-Dawley rats (250-300 g) were premedicated with atropine (0.05 mg/kg ip), anaesthetized with ketamine (75 mg/kg ip) and xylazine (10 mg/kg ip), and mechanically ventilated (Inspira ASV, Harvard Apparatus). Anaesthesia was maintained with 1-2% isoflurane and body temperature controlled with a heating pad to 36-37° C. The heart was exposed through the fourth intercostal space and the left anterior descending coronary artery (LAD) ligated using 6/0 silk suture (Ethicon Endo-surgery, OH, USA), 1 mm distal to left atrial appendage. After occlusion for 30 min, the suture was loosened to start reperfusion and buprenorphine (0.05 mg/kg per 6 h, subcutaneously) was given for 48 h. Mice with lack of ST-elevation during ischemia or lack of ST-recovery at reperfusion were excluded from further evaluation.
Macrophage infiltration in the non-infarcted myocardium was analyzed by immunohistochemistry in hearts reperfused for 3 days (n=4 per group).
Myocardial sections were exposed to H2O2/methanol, levamisol (DakoCytomation) and avidin/biotin blocking (Vector Laboratories) to neutralize endogenous peroxidase, phosphatase and biotin, respectively. Sections were probed with CD68 (AbD Serotec) for monocytes/macrophages, incubated with a biotinylated secondary antibody (1:200, ABC Peroxidase standard stainig kit, Thermo Scientific) in 2% normal blocking serum and visualized using 3, 3′-diaminobenzidine (DAB, Sigma). Six random photomicrographs from the infarct area and six from the non-infarcted area for each heart (n=6 per group) were taken at 200× magnification.

[7] = added to the cardioplegic solution and during 60 min of reperfusion; cited from earlier work
[8] = system: Sprague-Dawley rats; test: Myocardial hypertrophy and fibrosis induced by isoproterenol; type: in vivo, rat; details: 7 days
Protocol: Chronic administration of isoproterenol is the most common small animal model in the study of myocardial remodeling. In order to study the effect of calpain inhibition in AVR of a different cause than myocardial infarction, myocardial hypertrophy and fibrosis induced by isoproterenol.
The calpain inhibitor SNJ-1945 was co-administered orally once a day to male Sprague-Dawley rats that received 5 mg/Kg/day isoproterenol (ISO) […] for 1 week. Assayed groups were as follows:
Isoproterenol group (ISO): administration of isoproterenol as a single daily subcutaneous injection for 7 consecutive days.
SNJ-1945 treated group (SNJ+ISO): co-administration of SNJ-1945 (orally) and isoproterenol (subcutaneous) for 7 consecutive days.
Hearts were obtained and compared with vehicle-treated and ISO treated rats not receiving the calpain inhibitor.
Echocardiography was performed using a Vivid portable ultrasound system with a i12L-RS 12 MHz transducer (GE Healthcare) as described earlier (Poncelas, Inserte et al. 2015, “Obesity induced by high fat diet attenuates postinfarct myocardial remodeling and dysfunction in adult B6D2F1 mice”, Journal of Molecular and Cellular Cardiology-2015, vol. no. 84, pp.: 154-161).
For the PCR, total RNA was extracted from ischemic and non-ischemic area of heart samples of the three assayed groups using TRIsure™ reagent (BIOLINE, UK) following the manufacturer's protocol. Quantitative RT-PCR was performed using Taqman universal PCR master mix (Applied Biosystems, USA). The amplification program consisted of 50° C. for 2 minutes, 95° C. for 10 minutes and 40 cycles of 95° C. for 15 sec and 60° C. for 1 minutes and was performed in a 7900HT Fast Real-Time PCR System (Applied Biosystems, USA). Primers used for ANP, BNP, collagen I, Myh6, Myh7, and […] were purchased from Thermofisher and were those in the following Gene Expression Assays (Rn00561661_m1, Rn04219558_g1, Rn01463848_m1, Rn00691721_g1, Rn01488777_g1, and Rn00572010_m1, respectively, reference to assays retrievable from Thermofisher catalogue at Mar. 1, 2017; https://www.thermofisher.com/order/genome-databaseldetails/gene-expression/).

[9] = system: calpain; test: Proteolysis of α-fodrin after oral gavage, 60 minutes of reperfusion; type: in vivo, rat; details: 120 mg/kg orally (gavage); after 60 minutes of reperfusion
[10] = SNJ-1945 orally once a day with isoproterenol 5 mg/Kg/day
[11] = oral co-administration with ISO

**Q.** With `CCN(CC)Cc1ccc(/C=C/c2ccccc2C(=O)NC(Cc2ccccc2)C(=O)C(N)=O)cc1` (centres unmarked) [A-705253] as the compound, how does the Cardioprotective effect [1] read?
**A.** Its Cardioprotective effect is “cardioprotective effect”.

**Q.** And the “Hemodynamic and contractile function” value [2]?
**A.** The value was “improved”.

**Q.** And the Infarct size [2]?
**A.** The Infarct size was “reduced”.

**Q.** Which results are given for `COCCOCCOC(=O)N[C@@H](CC(C)C)C(=O)N[C@@H](Cc1ccccc1)C(=O)C(=O)NC1CC1` [SNJ-1945, ((1S)-1-((((1S)-1-benzyl-2,3-dioxo-3-(cyclopropylamino)-propyl)amino)carbonyl)-3-methylbutyl)carbamic acid 5-methoxy-3-oxapentyl ester]?
**A.** MMP-2 activity (gelatinolytic) [3]: does not inhibit; Calpain-specific α-fodrin breakdown products (calpain inhibition) [4]: dose-dependent reduction; LV dilation and dysfunction (echocardiography: LVEDD, LVESD, EF) ([5]; Ac+Chr group: acute ip plus oral 14 days, measured at 1 week of reperfusion vs control): significantly attenuated; Attenuation of scar area (LV area stained with picrosirius red) ([5]; Ac+Chr group, P=0.003): 33.7%; Levels of α-SMA (marker of fibroblast activation, western-blot) ([5]; Ac+Chr group, P=0.009): reduced; Interstitial fibrosis, acute and chronic phase combined ([5]; Ac+Chr group, P=0.016): No further reduction; β-MHC protein levels (western-blot, relative to GAPDH) ([5]; Ac+Chr group, P=0.019): attenuated; Cardiomyocyte hypertrophy (cross-sectional area, non-ischemic myocardium) ([5]; Ac+Chr group, P=0.021): significantly reduced; LV dilatation, ejection fraction and scar area: combination vs individual treatments ([5]; Ac+Chr vs acute or chronic alone): did not result in a statistically significant improvement; Hypertrophy markers: additive effect when both treatments were combined ([5]; Ac+Chr vs single treatments): No significant additive effect; Cardiomyocyte hypertrophy (cross-sectional area, non-ischemic myocardium) ([5]; Acute group): not acute; β-MHC protein levels (western-blot, relative to GAPDH) ([5]; Acute group): attenuated only in groups treated chronically; Attenuation of scar area (LV area stained with picrosirius red) ([5]; Acute group, 120 mg/kg ip at reperfusion, P=0.002): 29.1%; LV dilation and dysfunction (echocardiography: LVEDD, LVESD, EF) ([5]; Acute group: 120 mg/kg intraperitoneally 5 min before reperfusion, measured at 1 week of reperfusion vs control): significantly attenuated; Interstitial collagen deposition in the non-infarcted area ([5]; Acute group, P=0.109): not acute treatment; Attenuation of scar area (LV area stained with picrosirius red) ([5]; Chronic group, 120 mg/kg oral 14 days from 24 h of reperfusion, P=0.036): 22.7%; LV dilation and dysfunction (echocardiography: LVEDD, LVESD, EF) ([5]; Chronic group: 120 mg/kg orally over 14 days starting after 24 h of reperfusion, at 21 days of reperfusion vs control): significantly attenuated; Levels of α-SMA (marker of fibroblast activation, western-blot) ([5]; Chronic group, P=0.012): reduced; Interstitial collagen deposition in the non-infarcted area ([5]; Chronic group, P=0.029): reduced; β-MHC protein levels (western-blot, relative to GAPDH) ([5]; Chronic group, P=0.036): attenuated; Cardiomyocyte hypertrophy (cross-sectional area, non-ischemic myocardium) ([5]; Chronic group, P=0.041): significantly reduced; Echocardiographic parameters, acute vs chronic treatment ([5]; at the end of the experiment (21 days)): No significant differences; Survival rate between groups ([5]; control, acute, chronic, Ac+Chr, overall mortality rate 12.5%): no differences; Infiltration of monocytes/macrophages: acute and chronic treatments combined ([6]; Ac+Chr group, P<0.001): no significant additive effect; Infiltration of monocytes/macrophages (CD68+) in the ischemic area ([6]; Acute group, P=0.002): attenuate; Infiltration of monocytes/macrophages (CD68+) in the non-ischemic area ([6]; Acute group, P=0.046): attenuate; Infiltration of monocytes/macrophages (CD68+) in the non-ischemic area ([6]; Chronic group, P=0.001): attenuate; Infiltration of monocytes/macrophages (CD68+) in the ischemic area ([6]; Chronic group, P=0.028): attenuate; Left ventricular dysfunction after cardioplegic arrest [7]: prevents left ventricular dysfunction; Increase in heart weight induced by isoproterenol [8, 10]: reduces the increase; Increase in interventricular wall (IVSWT) thickness induced by isoproterenol, echocardiography [8, 10]: reduces the increase; Increase in posterior wall (PWT) thickness induced by isoproterenol, echocardiography [8, 10]: reduces the increase; ANP mRNA levels (PCR) [8, 11]: reduced; BNP mRNA levels (PCR) [8, 11]: reduced; Calpain activation [8, 11]: attenuated; Cardiomyocyte crossectional area [8, 11]: reduced; Expression of TGFβ induced by ISO (PCR) [8, 11]: significantly reduced; Expression of collagen I induced by ISO (PCR) [8, 11]: significantly reduced; Intraventricular collagen deposition induced by ISO [8, 11]: significantly reduced; β-MHC/α-MHC ratio (PCR) [8, 11]: reduced; Proteolisis of α-fodrin [9]: significantly reduced
